Data taken from the NIST ThermoML archive (doi:10.1021/je700339f).

Test: xn = mol fraction of the nth substance listed
Conditions: 298 K, Liquid

ClCCCl [1,2-dichloroethane] + CC(=O)N(C)C
mass density [kg/m3]
Conditions	x2 = 0.0977	x2 = 0.2003	x2 = 0.2988	x2 = 0.4022	x2 = 0.4999	x2 = 0.6007	x2 = 0.7008	x2 = 0.7988	x2 = 0.8997
100 kPa	1210	1174.4	1141.3	1107.9	1077.4	1047.1	1018.1	990.5	963.2
500 kPa	1210.4	1174.8	1141.6	1108.2	1077.7	1047.4	1018.4	990.8	963.4
1000 kPa	1210.9	1175.2	1142.1	1108.7	1078	1047.7	1018.7	991.1	963.8
1500 kPa	1211.3	1175.6	1142.5	1109	1078.4	1048.1	1019.1	991.4	964.1
2000 kPa	1211.8	1176	1142.9	1109.5	1078.8	1048.4	1019.4	991.8	964.4
2500 kPa	1212.2	1176.5	1143.3	1109.9	1079.2	1048.8	1019.8	992	964.7
3000 kPa	1212.6	1176.9	1143.8	1110.2	1079.6	1049.1	1020.1	992.4	965
3500 kPa	1213.2	1177.3	1144.1	1110.6	1080	1049.5	1020.5	992.7	965.3
4000 kPa	1213.6	1177.7	1144.6	1111	1080.4	1049.8	1020.9	993.1	965.6
4500 kPa	1214	1178.2	1144.8	1111.5	1080.8	1050.1	1021.1	993.4	965.9
5000 kPa	1214.5	1178.6	1145.4	1111.8	1081.1	1050.5	1021.5	993.7	966.2
5500 kPa	1215	1179	1145.8	1112.2	1081.5	1050.8	1021.8	994	966.5
6000 kPa	1215.4	1179.5	1146.1	1112.6	1081.8	1051.2	1022.1	994.3	966.9
6500 kPa	1215.9	1179.9	1146.6	1113	1082.2	1051.6	1022.5	994.7	967.2
7000 kPa	1216.3	1180.3	1147	1113.4	1082.6	1052	1022.8	995	967.5
7500 kPa	1216.7	1180.7	1147.4	1113.8	1083	1052.3	1023.1	995.3	967.8
8000 kPa	1217.2	1181.2	1147.8	1114.1	1083.3	1052.7	1023.5	995.6	968.1
8500 kPa	1217.7	1181.5	1148.2	1114.5	1083.7	1053	1023.8	996	968.4
9000 kPa	1218.1	1182	1148.6	1114.9	1084	1053.4	1024.2	996.3	968.8
9500 kPa	1218.5	1182.4	1149	1115.3	1084.4	1053.8	1024.4	996.6	969
10000 kPa	1219	1182.9	1149.5	1115.7	–	–	–	–	–
